The target in the test is human PCSK9 / human LDLR EGFa domain interaction (Homo sapiens, UniProt Q8NBP7). Kind of test: TR-FRET assay of inhibition of the PCSK9-LDLR protein-protein interaction. Format: binding. The note with it: 20 nM avitag-biotinylated human PCSK9, 20 nM his-tagged human LDLR EGFa domain, 2 hours, room temperature. On the procedure:
A time-resolved fluorescence resonance energy (TR-FRET) assay was used to measure inhibition of the PCSK9-LDLR protein-protein interaction. Briefly, 20 nM avitag-biotinylated human PCSK9 was incubated with 20 nM his-tagged human LDLR EGFa domain in the presence of 5 nM LANCE Ulight Streptavidin (Perkin Elmer) and 5 nM europium-Anti-6×His (Perkin Elmer) for 2 hours covered at room temperature in buffer containing 50 mM HEPES, 150 mM NaCl, 5 mM CaCl2), 0.01% BSA and 0.01% Surfactant P20. Compounds were tested in dose-response and concentrations giving half-maximal inhibition calculated using a 4-parameter fit equation.
A general note: TR-FRET usually uses a lanthanide donor and a delayed reading to cut background.

Numbered stars: 1 amine (or outer) side, 2 acyl side, 3 side chain; on linkers, the order of the positions; unused ones are H or OH. Bridge positions count the residues as written; N and C are the ends. Square brackets hold non-standard residues; d marks the D form. Peptide text beside a SMILES is read from it. Trp(7-aza) = N[C@@H](Cc1c[nH]c2ncccc12)C(=O)O; Ala(2-furyl) = N[C@@H](Cc1ccco1)C(=O)O; 1Nal = N[C@@H](Cc1cccc2ccccc12)C(=O)O; mXylylene = c1cc(C[*:1])cc(C[*:2])c1; Aad = N[C@@H](CCCC(=O)O)C(=O)O; Tle = CC(C)(C)[C@H](N)C(=O)O; αMeV = CC(C)[C@](C)(N)C(=O)O; S5 = C=CCCC[C@](C)(N)C(=O)O; Iva = CC[C@](C)(N)C(=O)O; Nva = CCC[C@H](N)C(=O)O; Aib = CC(C)(N)C(=O)O; Mpa = O=C(O)CCS

Sequence of human PCSK9 / human LDLR EGFa domain interaction (Q8NBP7 153-692): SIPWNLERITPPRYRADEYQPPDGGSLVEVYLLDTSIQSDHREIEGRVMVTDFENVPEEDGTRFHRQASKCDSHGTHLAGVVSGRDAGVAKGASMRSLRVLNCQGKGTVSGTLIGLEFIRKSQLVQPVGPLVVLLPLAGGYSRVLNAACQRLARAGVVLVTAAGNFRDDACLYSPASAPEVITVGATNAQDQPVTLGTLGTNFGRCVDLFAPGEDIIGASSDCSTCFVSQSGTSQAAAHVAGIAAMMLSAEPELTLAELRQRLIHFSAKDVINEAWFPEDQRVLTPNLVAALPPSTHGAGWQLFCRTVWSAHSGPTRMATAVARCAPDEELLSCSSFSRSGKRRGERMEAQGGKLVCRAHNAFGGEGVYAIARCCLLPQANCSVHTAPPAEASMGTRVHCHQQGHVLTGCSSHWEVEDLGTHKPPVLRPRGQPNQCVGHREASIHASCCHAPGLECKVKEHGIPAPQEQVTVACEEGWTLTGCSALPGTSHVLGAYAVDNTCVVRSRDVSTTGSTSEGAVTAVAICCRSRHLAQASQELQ
Sequence of human PCSK9 / human LDLR EGFa domain interaction (Q8NBP7 31-152 partner limits assumed): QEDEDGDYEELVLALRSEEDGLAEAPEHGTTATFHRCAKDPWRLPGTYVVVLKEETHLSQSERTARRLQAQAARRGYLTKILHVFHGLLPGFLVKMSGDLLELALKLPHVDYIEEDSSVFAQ

Turning to `C=CCCC[C@]1(C)NC(=O)[C@H](Cc2cccc3ccccc23)NC(=O)[C@H]([C@@H](C)O)NC(=O)[C@@H]2CCCN2C(=O)[C@H](Cc2ccc(O)cc2)NC(=O)[C@H](C(C)(C)C)NC(=O)[C@@H](NC(C)=O)CCCC(=O)NCCCC[C@@H](C(N)=O)NC(=O)[C@](C)(CCCC=C)NC(=O)[C@H](CCC)NC(=O)[C@H](Cc2ccc(O)cc2)NC(=O)[C@H](C)NC1=O` [Compound 044] (Ac-[Aad][Tle]YPT[1Nal][S5]AY[Nva][S5]K-NH2; lactam 1-12), the IC50 (usually the point on the concentration scale where inhibition reaches its midpoint) was in the range of 100 to 1000 nM. `CCC[C@@H]1NC(=O)[C@H](Cc2ccc(O)cc2)NC(=O)[C@H](C)NC(=O)C(C)(C)NC(=O)[C@H](Cc2c[nH]c3ncccc23)NC(=O)[C@H]([C@@H](C)O)NC(=O)[C@@H]2CCCN2C(=O)[C@H](Cc2ccc(O)cc2)NC(=O)[C@H](C(C)(C)C)NC(=O)[C@@H](NC(C)=O)CCCC(=O)NCCCC[C@@H](C(N)=O)NC(=O)C(C)(C)NC1=O` [Compound 049] (Ac-[Aad][Tle]YPT[Trp(7-aza)][Aib]AY[Nva][Aib]K-NH2; lactam 1-12) had a half-maximal inhibitory concentration (IC50) of 100 to 1000 nM. The value for `C=CCCC[C@]1(C)NC(=O)[C@H](CCC)NC(=O)[C@H](Cc2ccc(O)cc2)NC(=O)[C@H](C)NC(=O)[C@](C)(CC)NC(=O)[C@H](Cc2c[nH]c3ncccc23)NC(=O)[C@H]([C@@H](C)O)NC(=O)[C@@H]2CCCN2C(=O)[C@H](Cc2ccc(O)cc2)NC(=O)[C@H](C(C)(C)C)NC(=O)[C@@H](NC(C)=O)CCCC(=O)NCCCC[C@@H](C(N)=O)NC1=O` [Compound 050] (Ac-[Aad][Tle]YPT[Trp(7-aza)][Iva]AY[Nva][S5]K-NH2; lactam 1-12) was 1000 to 21000 nM.

`CCC[C@@H]1NC(=O)[C@H]([C@@H](C)O)NC(=O)[C@@H]2CCCN2C(=O)[C@H](Cc2ccc(O)cc2)NC(=O)[C@H](C(C)(C)C)NC(=O)[C@@H](NC(C)=O)CCCCNC(=O)CCC[C@@H](C(N)=O)NC(=O)[C@H]([C@@H](C)O)NC(=O)[C@](C)(C(C)C)NC(=O)[C@H](Cc2ccc(O)cc2)NC(=O)[C@H](C)NC1=O` [Compound 057] (Ac-K[Tle]YPT[Nva]AY[αMeV]T[Aad]-NH2; lactam 1-11): the concentration for half-maximal inhibition (IC50) was in the range of 1000 to 21000 nM. As to `CCC[C@@H]1NC(=O)[C@H](Cc2c[nH]c3ncccc23)NC(=O)[C@H]([C@@H](C)O)NC(=O)[C@@H]2CCCN2C(=O)[C@H](Cc2ccc(O)cc2)NC(=O)[C@H](C(C)(C)C)NC(=O)[C@@H](NC(C)=O)CCCC(=O)NCCCC[C@H](C(N)=O)NC(=O)[C@H]([C@@H](C)O)NC(=O)[C@](C)(C(C)C)NC(=O)[C@H](Cc2ccc(O)cc2)NC(=O)[C@H](C)NC1=O` [Compound 072] (Ac-[Aad][Tle]YPT[Trp(7-aza)][Nva]AY[αMeV]T[dK]-NH2; lactam 1-12), the IC50 was 1000 to 21000 nM. For `CCC[C@@H]1NC(=O)[C@H](Cc2ccc(O)cc2)NC(=O)[C@H](C)NC(=O)[C@@](C)(NC(=O)[C@H](Cc2cccc3ccccc23)NC(=O)[C@@H](NC(=O)[C@@H]2CCCN2C(=O)[C@H](Cc2ccc(O)cc2)NC(=O)[C@@H](NC(C)=O)C(C)(C)C)[C@@H](C)O)CCC/C=C/CCC[C@@](C)(C(N)=O)NC1=O` [Compound 078] (Ac-[Tle]YPT[1Nal][S5]AY[Nva][S5]-NH2; staple (E) 6-10) the value was 1000 to 21000 nM. For `CCC[C@@H]1NC(=O)[C@H](Cc2c[nH]c3ncccc23)NC(=O)[C@H]([C@@H](C)O)NC(=O)[C@H](Cc2ccco2)NC(=O)[C@H](Cc2ccc(O)cc2)NC(=O)[C@H](C(C)(C)C)NC(=O)CCSCc2cccc(c2)CSC[C@@H](C(N)=O)NC(=O)[C@H]([C@@H](C)O)NC(=O)[C@H](CCC)NC(=O)[C@H](Cc2ccc(O)cc2)NC(=O)[C@H](CCC(=O)O)NC1=O` [Compound 117] ([Mpa][Tle]Y[Ala(2-furyl)]T[Trp(7-aza)][Nva]EY[Nva]TC-NH2; linker 1-12 via mXylylene) the value was 1000 to 21000 nM.

Source of the values: patent US11814444B2, “Cyclic polypeptides for PCSK9 inhibition” (Ra Pharmaceuticals, Inc., priority 2018, dated 2023).
